Values after ≈ are worked out from the molar mass of the structure shown. Like-named read-outs stand apart in the source and are kept apart here.
Tests used:
Format in all cases: cell-based
Bacilus subtilis PCI 219 = test: Antibacterial spectra, MIC; settings: Bacillus subtilis, PCI219
[1] = tested on: Staphylococcus aureus 209 P; test: Antibacterial spectra, MIC; settings: 10^6 cells/ml, Gram +, read-out: MIC
[2] = tested on: S. aureus IID 670 (Terajima); test: Antibacterial spectra, MIC; settings: Staphylococcus aureus, IID670; 10^6 cells/ml; Gram +; read-out: MIC
S. aureus Smith = test: Antibacterial spectra, MIC; settings: Staphylococcus aureus; 10^6 cells/ml; Gram +; read-out: MIC
S. epidermidis IID 866 = test: Antibacterial spectra, MIC; settings: Staphylococcus epidermidis, IID866; 10^6 cells/ml; Gram +; read-out: MIC
E. coli ML 4707 = test: Antibacterial spectra, MIC; settings: Escherichia coli, ML4707; 10^6 cells/ml; Gram -
Description: (§1) The antibacterial test was carried out according to the method designated by Japan Society of Chemotherapy.

[3] = tested on: Proteus vulgaris IFO 3167; test: Antibacterial spectra, MIC; settings: IFO3167, 10^6 cells/ml, Gram -
Description: as §1

Shigella sonnei IID 969 = test: Antibacterial spectra, MIC; settings: IID969, 10^6 cells/ml, Gram -
Description: as §1

[4] = tested on: Escherichia coli NIHJ JC-2; test: Antibacterial spectra, MIC
E. coli ATCC 10536 = test: Antibacterial spectra, MIC; settings: Escherichia coli, ATCC10536
P. mirabilis IID 994 = test: Antibacterial spectra, MIC; settings: Proteus mirabilis, IID994; 10^6 cells/ml; Gram -; read-out: MIC
[5] = tested on: Morganella morganii IID 602; test: Antibacterial spectra, MIC; settings: IID602, 10^6 cells/ml, Gram -, read-out: MIC
[6] = tested on: Klebsiella pneumoniae KY(GN)6445; test: Antibacterial spectra, MIC; settings: 10^6 cells/ml, Gram -, read-out: MIC
K. pneumoniae 1-220S = test: Antibacterial spectra, MIC; settings: Klebsiella pneumoniae, 1220S; 10^6 cells/ml; Gram -; read-out: MIC
[7] = tested on: Enterobacter cloacae IID 977; test: Antibacterial spectra, MIC; settings: IID977, 10^6 cells/ml, Gram -, read-out: MIC
[8] = tested on: Citrobacter freundii IID 976; test: Antibacterial spectra, MIC; settings: IID976, 10^6 cells/ml, Gram -, read-out: MIC
[9] = tested on: Serratia marcescens IID 618; test: Antibacterial spectra, MIC; settings: IID618, 10^6 cells/ml, Gram -, read-out: MIC
[10] = tested on: Salmonella enteritidis IID 604; test: Antibacterial spectra, MIC; settings: Salmonella enterica; 10^6 cells/ml; Gram -; read-out: MIC
[11] = tested on: Pseudomonas aeruginosa V-1; test: Antibacterial spectra, MIC
P. aeruginosa IFO 12689 = test: Antibacterial spectra, MIC; settings: Pseudomonas aeruginosa, IFO12689; 10^6 cells/ml; Gram -; read-out: MIC
P. aeruginosa IID 1210 = test: Antibacterial spectra, MIC; settings: Pseudomonas aeruginosa, IID1210
P. cepacia GIFU 518 = test: Antibacterial spectra, MIC; settings: Burkholderia cepacia, GIFU518; 10^6 cells/ml; Gram -; read-out: MIC
P. maltophilia GIFU 2491 = test: Antibacterial spectra, MIC; settings: Stenotrophomonas maltophilia, GIFU2491
[12] = tested on: Yersinia enterocolitica IID 981; test: Antibacterial spectra, MIC; settings: IID981, 10^6 cells/ml, Gram -, read-out: MIC
[13] = tested on: Acinetobacter anitratus IID 876; test: Antibacterial spectra, MIC; settings: Acinetobacter calcoaceticus, IID876; 10^6 cells/ml; Gram -; read-out: MIC
[14] = tested on: Alcaligenes faecalis 0114002; test: Antibacterial spectra, MIC
[15] = tested on: Bacteroides fragilis GM 7000; test: Antibacterial spectra, MIC
B. fragilis 0558 = test: Antibacterial spectra, MIC; settings: Bacteroides fragilis
B. fragilis 25285 = test: Antibacterial spectra, MIC; settings: Bacteroides fragilis
B. distasonis 8503 = test: Antibacterial spectra, MIC; settings: Parabacteroides distasonis
[16] = tested on: B. thetaiotaomicron (0661); test: Antibacterial spectra, MIC; settings: Bacteroides thetaiotaomicron; 10^6 cells/ml; Gram -; read-out: MIC
B. vulgatus KYA 29327 = test: Antibacterial spectra, MIC; settings: Phocaeicola vulgatus, KYA29327
[17] = tested on: Fusobacterium mortiferum 4249; test: Antibacterial spectra, MIC
F. necrophorum S-45 = test: Antibacterial spectra, MIC; settings: Fusobacterium necrophorum, S45
F. varium KYA 8501 = test: Antibacterial spectra, MIC; settings: Fusobacterium varium, KYA8501
[18] = tested on: Eubacterium lentum GAI 5242; test: Antibacterial spectra, MIC; settings: Eggerthella lenta, GAI5242; 10^6 cells/ml; Gram +; read-out: MIC
[19] = tested on: Propionibacterium acens 11828; test: Antibacterial spectra, MIC
[20] = tested on: Peptococcus magnus KY 017; test: Antibacterial spectra, MIC; settings: Finegoldia magna, KY017; 10^6 cells/ml; Gram +; read-out: MIC
[21] = tested on: Clostridium difficile I-E; test: Antibacterial spectra, MIC; settings: Clostridioides difficile
C. perfringens KYA 13123 = test: microbe, parasite or virus in culture; settings: Clostridium perfringens, KYA13123
C. ramosum = test: Antibacterial spectra, MIC; settings: Thomasclavelia ramosa
[22] = tested on: Peptostreptococcus anaerobius KYA 27337; test: Antibacterial spectra, MIC
Pst. micros UPI 5464-1 = test: Antibacterial spectra, MIC; settings: Parvimonas micra, UPI54641
[23] = tested on: Veillonella parvula KYA 10790; test: Antibacterial spectra, MIC
[24] = 10^6 cells/ml, Gram -, read-out: MIC
[25] = 10^6 cells/ml, Gram +, read-out: MIC

## COc1c(N2CCN(C)CC2)c(F)cc2c(=O)c(C(=O)O)cn(C3CC3)c12 [Exp. 2, 1-cyclopropyl-6-fluoro-1,4-dihydro-8-methoxy-7-(4-methyl-1-piperazinyl)-4-oxo-3-quinolinecarboxylic acid]
Bacilus subtilis PCI 219
  MIC: 0.025 µg/mL (≈ 0.0666 µM)
[1]
  MIC: 0.1 µg/mL (≈ 0.266 µM)
[2]
  MIC: 0.1 µg/mL (≈ 0.266 µM)
S. aureus Smith
  MIC: 0.1 µg/mL (≈ 0.266 µM)
S. epidermidis IID 866
  MIC: 0.1 µg/mL (≈ 0.266 µM)
E. coli ML 4707
  MIC: 0.025 µg/mL (≈ 0.0666 µM)
[3]
  MIC: 0.025 µg/mL (≈ 0.0666 µM)
Shigella sonnei IID 969
  MIC: 0.025 µg/mL (≈ 0.0666 µM)
[4]; NIHJJC2
  MIC: 0.0125 µg/mL (≈ 0.0333 µM)
E. coli ATCC 10536
  MIC: 0.025 µg/mL (≈ 0.0666 µM)
P. mirabilis IID 994
  MIC: 0.05 µg/mL (≈ 0.133 µM)
[5]
  MIC: 0.1 µg/mL (≈ 0.266 µM)
[6]
  MIC: 0.05 µg/mL (≈ 0.133 µM)
K. pneumoniae 1-220S
  MIC: 0.1 µg/mL (≈ 0.266 µM)
[7]
  MIC: 0.1 µg/mL (≈ 0.266 µM)
[8]
  MIC: 0.05 µg/mL (≈ 0.133 µM)
[9]
  MIC: 0.1 µg/mL (≈ 0.266 µM)
[10]
  MIC: 0.1 µg/mL (≈ 0.266 µM)
[11]; V1
  MIC: 0.39 µg/mL (≈ 1.04 µM)
P. aeruginosa IFO 12689
  MIC: 1.56 µg/mL (≈ 4.16 µM)
P. aeruginosa IID 1210; [24]
  MIC: 1.56 µg/mL (≈ 4.16 µM)
P. cepacia GIFU 518
  MIC: 1.56 µg/mL (≈ 4.16 µM)
P. maltophilia GIFU 2491; [24]
  MIC: 0.2 µg/mL (≈ 0.533 µM)
[12]
  MIC: 0.1 µg/mL (≈ 0.266 µM)
[13]
  MIC: 0.1 µg/mL (≈ 0.266 µM)
[14]
  MIC: 0.39 µg/mL (≈ 1.04 µM)
[15]; GM7000
  MIC: 0.39 µg/mL (≈ 1.04 µM)
B. fragilis 0558; [24]
  MIC: 0.2 µg/mL (≈ 0.533 µM)
B. fragilis 25285
  MIC: 0.39 µg/mL (≈ 1.04 µM)
B. distasonis 8503
  MIC: 0.39 µg/mL (≈ 1.04 µM)
[16]
  MIC: 1.56 µg/mL (≈ 4.16 µM)
B. vulgatus KYA 29327
  MIC: 0.39 µg/mL (≈ 1.04 µM)
[17]; [24]
  MIC: 0.78 µg/mL (≈ 2.08 µM)
F. necrophorum S-45; [24]
  MIC: 0.78 µg/mL (≈ 2.08 µM)
F. varium KYA 8501; [24]
  MIC: 6.25 µg/mL (≈ 16.6 µM)
[18]
  MIC: 0.2 µg/mL (≈ 0.533 µM)
[19]; [25]
  MIC: 6.25 µg/mL (≈ 16.6 µM)
[20]
  MIC: 0.2 µg/mL (≈ 0.533 µM)
[21]; [25]
  MIC: 1.56 µg/mL (≈ 4.16 µM)
C. perfringens KYA 13123
  MIC: 0.39 µg/mL (≈ 1.04 µM)
C. ramosum
  MIC: 3.13 µg/mL (≈ 8.34 µM)
[22]; KYA27337, 10^6 cells/ml, Gram +, read-out: MIC
  MIC: 0.78 µg/mL (≈ 2.08 µM)
Pst. micros UPI 5464-1
  MIC: 0.39 µg/mL (≈ 1.04 µM)
[23]; KYA10790
  MIC: 0.39 µg/mL (≈ 1.04 µM)

## COc1c(N2CCNCC2)c(F)cc2c(=O)c(C(=O)O)cn(C3CC3)c12 [Exp. 1]
Bacilus subtilis PCI 219; [25]
  MIC: 0.025 µg/mL (≈ 0.0692 µM)
[1]
  MIC: 0.1 µg/mL (≈ 0.277 µM)
[2]
  MIC: 0.1 µg/mL (≈ 0.277 µM)
S. aureus Smith
  MIC: 0.1 µg/mL (≈ 0.277 µM)
S. epidermidis IID 866
  MIC: 0.1 µg/mL (≈ 0.277 µM)
E. coli ML 4707
  MIC: 0.025 µg/mL (≈ 0.0692 µM)
[3]
  MIC: 0.0125 µg/mL (≈ 0.0346 µM)
Shigella sonnei IID 969
  MIC: 0.0125 µg/mL (≈ 0.0346 µM)
[4]; NIHJJC2, 10^6 cells/ml, Gram -, read-out: MIC
  MIC: ≤ 0.0063 µg/mL
E. coli ATCC 10536; [24]
  MIC: 0.025 µg/mL (≈ 0.0692 µM)
P. mirabilis IID 994
  MIC: 0.025 µg/mL (≈ 0.0692 µM)
[5]
  MIC: 0.05 µg/mL (≈ 0.138 µM)
[6]
  MIC: 0.025 µg/mL (≈ 0.0692 µM)
K. pneumoniae 1-220S
  MIC: 0.05 µg/mL (≈ 0.138 µM)
[7]
  MIC: 0.05 µg/mL (≈ 0.138 µM)
[8]
  MIC: 0.025 µg/mL (≈ 0.0692 µM)
[9]
  MIC: 0.05 µg/mL (≈ 0.138 µM)
[10]
  MIC: 0.05 µg/mL (≈ 0.138 µM)
[11]; V1, 10^6 cells/ml, Gram -, read-out: MIC
  MIC: 0.1 µg/mL (≈ 0.277 µM)
P. aeruginosa IFO 12689
  MIC: 0.78 µg/mL (≈ 2.16 µM)
P. aeruginosa IID 1210
  MIC: 0.39 µg/mL (≈ 1.08 µM)
P. cepacia GIFU 518
  MIC: 0.78 µg/mL (≈ 2.16 µM)
P. maltophilia GIFU 2491
  MIC: 0.39 µg/mL (≈ 1.08 µM)
[12]
  MIC: 0.05 µg/mL (≈ 0.138 µM)
[13]
  MIC: 0.1 µg/mL (≈ 0.277 µM)
[14]; [24]
  MIC: 0.2 µg/mL (≈ 0.553 µM)
[15]; GM7000, 10^6 cells/ml, Gram -, read-out: MIC
  MIC: 0.78 µg/mL (≈ 2.16 µM)
B. fragilis 0558
  MIC: 0.39 µg/mL (≈ 1.08 µM)
B. fragilis 25285
  MIC: 0.39 µg/mL (≈ 1.08 µM)
B. distasonis 8503; [24]
  MIC: 1.56 µg/mL (≈ 4.32 µM)
[16]
  MIC: 1.56 µg/mL (≈ 4.32 µM)
B. vulgatus KYA 29327; [24]
  MIC: 0.78 µg/mL (≈ 2.16 µM)
[17]
  MIC: 0.39 µg/mL (≈ 1.08 µM)
F. necrophorum S-45
  MIC: 0.39 µg/mL (≈ 1.08 µM)
F. varium KYA 8501
  MIC: 3.13 µg/mL (≈ 8.66 µM)
[18]
  MIC: 0.2 µg/mL (≈ 0.553 µM)
[19]
  MIC: 3.13 µg/mL (≈ 8.66 µM)
[20]
  MIC: 0.2 µg/mL (≈ 0.553 µM)
[21]
  MIC: 3.13 µg/mL (≈ 8.66 µM)
C. perfringens KYA 13123
  MIC: 0.39 µg/mL (≈ 1.08 µM)
C. ramosum
  MIC: 3.13 µg/mL (≈ 8.66 µM)
[22]; KYA27337
  MIC: 0.39 µg/mL (≈ 1.08 µM)
Pst. micros UPI 5464-1; [25]
  MIC: 0.2 µg/mL (≈ 0.553 µM)
[23]; KYA10790, 10^6 cells/ml, Gram -, read-out: MIC
  MIC: 0.2 µg/mL (≈ 0.553 µM)

Reference: patent publication US5043450A, “8-alkoxyquinolonecarboxylic acid and salts thereof” (priority 1986, dated 1991)
